Test results from patent publication US20230227405A1, “5-OXOPYRROLIDINE-3-CARBOXAMIDES AS NAV1.8 INHIBITORS” (MERCK SHARP & DOHME CORP., priority 2020, published 2023).

Biological target: T1, human Nav1.8 (Homo sapiens, UniProt Q9Y5Y9)
T1 construct: expressed in transfected cells
Experiment: Qube® automated patch-clamp assay, Nav1.8
Type: cell-based
Details: human Nav1.8 stably expressed in HEK 293 cells; whole-cell voltage clamp, room temperature; read-out: IC50 values (nM) for Examples in the Nav1.8 Qube® Assay
Experimental: Compounds were tested on human Nav1.8 and Nav1.5 channels stably expressed in human embryo kidney (HEK) 293 cells. Sodium current measurements on Qube® were conducted as follows: automated 384-well patch-clamp assays on the Qube® platform (Sophion Biosciences) were used to measure the inhibition of sodium flow through human Nav1.8 and Nav1.5 channels. Whole-cell voltage-clamp recordings were performed in QChips® (Sophion Biosciences) at room temperature. Nav1.8 current measurements on Qube® were obtained as follows: Nav1.8 currents were elicited with a 10 second 1 Hertz (Hz) pulse train from a holding potential of −90 millivolts (mV), delivered to the cells once per minute in the control condition (DMSO only) and after compound addition. The 1 hertz pulse train stimulation consisted of ten test pulses to 10 millivolt (mV) for 20 milliseconds (ms), each of which was followed by a 980 millisecond repolarization to −67 millivolts. At the end of the 10 second pulse train stimulation, a 5 second hyperpolarization step to −100 millivolt (mV) was used to recover Nav1.8 from fast inactivation. The peak currents elicited by the 1st and 10th test pulses were used to determine IC50 values for resting inhibition and inactivated state inhibition. Nav1.5 current measurements on Qube® were obtained as follows: Nav1.5 currents were elicited with a 20 second 3 Hertz pulse train in the control condition (DMSO only) and after compound addition. The pulse train consisted of sixty 20 millisecond test pulses to 0 millivolt from a holding potential of −80 millivolt (mV). The average peak currents elicited by the last 3 test pulses were used to determine IC50 values for Nav1.5 inhibition.
The following buffers were used for the Qube® recordings: External buffer for Nav1.8 Qube® recording: 150 NaCl, 2 CaCl2, 5 KCl, 1 Mg Cl2, 10 HEPES, 12 Dextrose; External buffer for Qube® Nav1.5 recording: 120 N-Methyl-D-Glucamine, 40 NaCl, 1 KCl, 2.7 CaCl2, 5 HEPES, 0.5 MgCl2; and Internal buffer for Qube® recording: 120 CsF, 30 CsCl, 10 EGTA, 5 HEPES, 5 NaF, 2 MgCl2.
For all Qube® experiments offline analysis was used to determine percent inhibition as a function of drug concentration. IC50 values were determined by fitting to the Hill equation.

T1 sequence (Q9Y5Y9 whole entry): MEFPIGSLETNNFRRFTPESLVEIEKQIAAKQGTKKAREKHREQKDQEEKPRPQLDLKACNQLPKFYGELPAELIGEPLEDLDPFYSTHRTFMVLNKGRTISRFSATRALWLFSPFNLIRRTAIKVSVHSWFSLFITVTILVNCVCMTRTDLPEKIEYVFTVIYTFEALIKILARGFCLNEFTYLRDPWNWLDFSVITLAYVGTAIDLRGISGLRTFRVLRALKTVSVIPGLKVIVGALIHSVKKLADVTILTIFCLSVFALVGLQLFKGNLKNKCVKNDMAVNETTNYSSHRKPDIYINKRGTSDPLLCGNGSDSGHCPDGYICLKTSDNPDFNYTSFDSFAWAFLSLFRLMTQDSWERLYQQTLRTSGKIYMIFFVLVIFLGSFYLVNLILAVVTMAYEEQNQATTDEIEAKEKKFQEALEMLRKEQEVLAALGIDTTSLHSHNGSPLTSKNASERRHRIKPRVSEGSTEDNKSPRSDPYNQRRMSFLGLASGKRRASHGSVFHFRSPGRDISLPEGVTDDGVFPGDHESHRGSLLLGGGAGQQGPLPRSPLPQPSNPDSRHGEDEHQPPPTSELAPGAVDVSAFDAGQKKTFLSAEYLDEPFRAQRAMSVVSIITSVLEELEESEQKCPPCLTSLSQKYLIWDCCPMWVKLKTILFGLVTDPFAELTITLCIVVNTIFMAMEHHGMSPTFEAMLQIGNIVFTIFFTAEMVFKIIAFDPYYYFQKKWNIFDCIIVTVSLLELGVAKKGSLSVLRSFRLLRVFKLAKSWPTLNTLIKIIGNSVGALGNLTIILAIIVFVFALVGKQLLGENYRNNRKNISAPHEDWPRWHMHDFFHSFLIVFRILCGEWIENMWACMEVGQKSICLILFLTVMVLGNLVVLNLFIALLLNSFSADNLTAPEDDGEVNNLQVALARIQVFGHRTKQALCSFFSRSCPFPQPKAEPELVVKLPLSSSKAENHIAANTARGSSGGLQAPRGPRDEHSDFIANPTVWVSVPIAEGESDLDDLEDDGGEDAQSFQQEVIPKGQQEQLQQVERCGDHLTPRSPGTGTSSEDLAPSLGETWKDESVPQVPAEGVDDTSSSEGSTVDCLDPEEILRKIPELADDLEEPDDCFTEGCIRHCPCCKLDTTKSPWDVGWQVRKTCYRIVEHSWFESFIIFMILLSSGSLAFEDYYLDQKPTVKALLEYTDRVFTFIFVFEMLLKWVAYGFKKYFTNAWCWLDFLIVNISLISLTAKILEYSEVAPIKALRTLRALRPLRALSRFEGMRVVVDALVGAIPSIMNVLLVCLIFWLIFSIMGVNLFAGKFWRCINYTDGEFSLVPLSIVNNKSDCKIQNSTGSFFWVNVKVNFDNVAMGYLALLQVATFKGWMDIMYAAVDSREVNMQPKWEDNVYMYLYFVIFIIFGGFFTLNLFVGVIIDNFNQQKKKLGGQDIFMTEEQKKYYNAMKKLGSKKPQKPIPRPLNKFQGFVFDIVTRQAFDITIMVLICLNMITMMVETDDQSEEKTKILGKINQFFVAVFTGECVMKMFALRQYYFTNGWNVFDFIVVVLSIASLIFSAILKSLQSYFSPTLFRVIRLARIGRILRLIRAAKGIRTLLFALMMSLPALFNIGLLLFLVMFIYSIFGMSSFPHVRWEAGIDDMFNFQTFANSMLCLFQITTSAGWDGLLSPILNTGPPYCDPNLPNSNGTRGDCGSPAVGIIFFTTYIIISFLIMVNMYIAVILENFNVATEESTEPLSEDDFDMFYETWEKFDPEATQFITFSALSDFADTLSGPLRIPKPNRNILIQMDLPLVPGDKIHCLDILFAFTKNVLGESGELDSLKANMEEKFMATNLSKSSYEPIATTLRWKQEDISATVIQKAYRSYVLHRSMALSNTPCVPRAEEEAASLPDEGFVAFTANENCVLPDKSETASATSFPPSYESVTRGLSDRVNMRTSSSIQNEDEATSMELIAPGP

Row | IC50 | SMILES
1 | 13 nM | O=C1C[C@H](C(=O)NC(c2ccc(Cl)cc2)c2ccc(F)c(Cl)c2)CN1 (mixture of isomers) [Example 1B, (S—N—((R and S)-(3-chloro-4-fluorophenyl)(4-chlorophenyl)methyl)-5-oxopyrrolidine-3-carboxamide]
2 | 3.4 nM | O=C1C[C@H](C(=O)NC(c2ccc(Cl)cc2)c2ccc(F)c(Cl)c2)CN1 (single isomer, unassigned) [Example 1A, (S—N—((R or S)-(3-chloro-4-fluorophenyl)(4-chlorophenyl)methyl)-5-oxopyrrolidine-3-carboxamide]
3 | 2.6 nM | O=C1C[C@H](C(=O)NC(c2ccc(Cl)cc2)c2ccc(F)c(C(F)(F)F)c2)CN1 (single isomer, unassigned) [Example 11A, (S)-N-((R or S)-(4-chlorophenyl)(4-fluoro-3-(trifluoromethyl)phenyl)methyl)-5-oxopyrrolidine-3-carboxamide]
4 | 17 nM | O=C1C[C@H](C(=O)NC(c2ccc(Cl)cc2)c2ccc(F)c(C(F)(F)F)c2)CN1 (single isomer, unassigned) [Example 11B, (S)-N-((R or S)-(4-chlorophenyl)(4-fluoro-3-(trifluoromethyl)phenyl)methyl)-5-oxopyrrolidine-3-carboxamide]
5 | 28 nM | O=C1C[C@H](C(=O)NC(c2ccc(Cl)cc2)c2ccc(OC(F)(F)F)cc2)CN1 (single isomer, unassigned) [Example 12A, (S)-N-((R or S)-(4-chlorophenyl)(4-(trifluoromethoxy)phenyl)methyl)-5-oxopyrrolidine-3-carboxamide]
6 | 4.1 nM | O=C1C[C@H](C(=O)NC(c2ccc(Cl)cc2)c2ccc(OC(F)(F)F)cc2)CN1 (single isomer, unassigned) [Example 12B, (S)-N-((R or S)-(4-chlorophenyl)(4-(trifluoromethoxy)phenyl)methyl)-5-oxopyrrolidine-3-carboxamide]
7 | 139 nM | N#Cc1ccc(C(NC(=O)[C@@H]2CNC(=O)C2)c2ccc(F)c(Cl)c2)cc1 (single isomer, unassigned) [Example 13A, (S)-N-((R or S)-(3-chloro-4-fluorophenyl)(4-cyanophenyl)methyl)-5-oxopyrrolidine-3-carboxamide]
8 | 129 nM | N#Cc1ccc(C(NC(=O)[C@@H]2CNC(=O)C2)c2ccc(F)c(Cl)c2)cc1 (single isomer, unassigned) [Example 13B, (S)-N-((R or S)-(3-chloro-4-fluorophenyl)(4-cyanophenyl)methyl)-5-oxopyrrolidine-3-carboxamide]
9 | 1.2 nM | O=C1C[C@H](C(=O)NC(c2ccc(Cl)cc2)c2ccc(Cl)c(C(F)(F)F)c2)CN1 (single isomer, unassigned) [Example 14A, (S—N—((R or S)-(4-chloro-3-(trifluoromethyl)phenyl)(4-chlorophenyl)methyl)-5-oxopyrrolidine-3-carboxamide]
10 | 9.4 nM | O=C1C[C@H](C(=O)NC(c2ccc(Cl)cc2)c2ccc(Cl)c(C(F)(F)F)c2)CN1 (single isomer, unassigned) [Example 14B, (S—N—((R or S)-(4-chloro-3-(trifluoro-methyl)phenyl)(4-chlorophenyl)methyl)-5-oxopyrrolidine-3-carboxamide]
11 | 4.2 nM | O=C1C[C@H](C(=O)NC(c2cnc(C(F)(F)F)c(Cl)c2)c2ccc(F)c(Cl)c2F)CN1 (single isomer, unassigned) [Example 15, (S—N—((R or S)-(3-chloro-2,4-difluorophenyl)(5-chloro-6-(trifluoromethyl)pyridin-3-yl)methyl)-5-oxopyrrolidine-3-carboxamide]
12 | 46 nM | O=C1C[C@H](C(=O)NC(c2ccc(F)c(Cl)c2F)[C@H]2C[C@H](C(F)(F)F)C2)CN1 (single isomer, unassigned) [Example 16, (S—N—((R or S)-(3-chloro-2,4-difluorophenyl)((trans)-3-(trifluoromethyl)cyclobutyl)methyl)-5-oxopyrrolidine-3-carboxamide]
13 | 11 nM | O=C1C[C@H](C(=O)NC(c2ccc(C(F)(F)F)cc2)c2ccc(F)c(Cl)c2)CN1 (single isomer, unassigned) [Example 17, (S—N—((R or S)-(3-chloro-4-fluorophenyl)(4-(trifluoromethyl)phenyl)methyl)-5-oxopyrrolidine-3-carboxamide]
14 | 16 nM | O=C1C[C@H](C(=O)NC(c2ccc(OC(F)(F)F)cc2)c2cccc(Cl)c2)CN1 (single isomer, unassigned) [Example 19A, (S)-N-((R or S)-(3-chlorophenyl)(4-(trifluoromethoxy)phenyl)methyl)-5-oxopyrrolidine-3-carboxamide]
15 | 17 nM | O=C1C[C@H](C(=O)NC(c2ccc(OC(F)(F)F)cc2)c2cccc(Cl)c2)CN1 (single isomer, unassigned) [Example 19B, (S)-N-((R or S)-(3-chlorophenyl)(4-(trifluoromethoxy)phenyl)methyl)-5-oxopyrrolidine-3-carboxamide]
16 | 51 nM | O=C1C[C@H](C(=O)NC(c2ccc(F)c(Cl)c2)c2ccc(Cl)c(C(F)(F)F)n2)CN1 (single isomer, unassigned) [Example 20A, (S)-N-((R or S)-(3-chloro-4-fluorophenyl)(5-chloro-6-(trifluoromethyl)-pyridin-2-yl)methyl)-5-oxopyrrolidine-3-carboxamide]
17 | 2.9 nM | O=C1C[C@H](C(=O)NC(c2ccc(F)c(Cl)c2)c2ccc(Cl)c(C(F)(F)F)n2)CN1 (single isomer, unassigned) [Example 20B, (S)-N-((R or S)-(3-chloro-4-fluorophenyl)(5-chloro-6-(trifluoromethyl)-pyridin-2-yl)methyl)-5-oxopyrrolidine-3-carboxamide]
18 | 2220 nM | CC1(C)CC(C(NC(=O)[C@@H]2CNC(=O)C2)c2ccc(F)c(Cl)c2F)C1 (single isomer, unassigned) [Example 21A, (S—N—((R or S)-(3-chloro-2,4-difluorophenyl)(3,3-dimethylcyclobutyl)methyl)-5-oxopyrrolidine-3-carboxamide]
19 | 17 nM | CC1(C)CC(C(NC(=O)[C@@H]2CNC(=O)C2)c2ccc(F)c(Cl)c2F)C1 (single isomer, unassigned) [Example 21B, (S—N—((R or S)-(3-chloro-2,4-difluorophenyl)(3,3-dimethylcyclobutyl)methyl)-5-oxopyrrolidine-3-carboxamide]
20 | 7460 nM | CC1C(=O)NCC1C(=O)NC(c1ccc(Cl)cc1)c1ccc(Cl)cc1 (single isomer, unassigned) [Example 27A, (3(R or S),4(R or S)—N-(bis(4-chlorophenyl)methyl)-4-methyl-5-oxopyrrolidine-3-carboxamide]
21 | 277 nM | CC1C(=O)NCC1C(=O)NC(c1ccc(Cl)cc1)c1ccc(Cl)cc1 (single isomer, unassigned) [Example 27B, (3(R or S),4(R or S)—N-(bis(4-chlorophenyl)methyl)-4-methyl-5-oxopyrrolidine-3-carboxamide]
22 | 3480 nM | CC1C(=O)NCC1C(=O)NC(c1ccc(Cl)cc1)c1ccc(Cl)cc1 (single isomer, unassigned) [Example 27C, (3(R or S),4(R or S)—N-(bis(4-chlorophenyl)methyl)-4-methyl-5-oxopyrrolidine-3-carboxamide]
